Test results: ChEMBL document CHEMBL1770059, “Identification of chemicals to inhibit the kinase activity of leucine-rich repeat kinase 2 (LRRK2), a Parkinson's disease-associated protein” (Bioorg Med Chem Lett, 2011)
The source made the active and inactive calls. No cut-off for these calls is given here.

What was measured:
[1] = system: Leucine-rich repeat serine/threonine-protein kinase 2 (Homo sapiens), Q5S007 [G2019S]; experiment: Inhibition of purified N-terminal GST-tagged LRRK2 G2019S mutant autophosphorylation activity using myelin basic protein as substrate at 25 uM
Chain of Leucine-rich repeat serine/threonine-protein kinase 2 (Homo sapiens), Q5S007 [G2019S] (Q5S007 whole entry G2019S): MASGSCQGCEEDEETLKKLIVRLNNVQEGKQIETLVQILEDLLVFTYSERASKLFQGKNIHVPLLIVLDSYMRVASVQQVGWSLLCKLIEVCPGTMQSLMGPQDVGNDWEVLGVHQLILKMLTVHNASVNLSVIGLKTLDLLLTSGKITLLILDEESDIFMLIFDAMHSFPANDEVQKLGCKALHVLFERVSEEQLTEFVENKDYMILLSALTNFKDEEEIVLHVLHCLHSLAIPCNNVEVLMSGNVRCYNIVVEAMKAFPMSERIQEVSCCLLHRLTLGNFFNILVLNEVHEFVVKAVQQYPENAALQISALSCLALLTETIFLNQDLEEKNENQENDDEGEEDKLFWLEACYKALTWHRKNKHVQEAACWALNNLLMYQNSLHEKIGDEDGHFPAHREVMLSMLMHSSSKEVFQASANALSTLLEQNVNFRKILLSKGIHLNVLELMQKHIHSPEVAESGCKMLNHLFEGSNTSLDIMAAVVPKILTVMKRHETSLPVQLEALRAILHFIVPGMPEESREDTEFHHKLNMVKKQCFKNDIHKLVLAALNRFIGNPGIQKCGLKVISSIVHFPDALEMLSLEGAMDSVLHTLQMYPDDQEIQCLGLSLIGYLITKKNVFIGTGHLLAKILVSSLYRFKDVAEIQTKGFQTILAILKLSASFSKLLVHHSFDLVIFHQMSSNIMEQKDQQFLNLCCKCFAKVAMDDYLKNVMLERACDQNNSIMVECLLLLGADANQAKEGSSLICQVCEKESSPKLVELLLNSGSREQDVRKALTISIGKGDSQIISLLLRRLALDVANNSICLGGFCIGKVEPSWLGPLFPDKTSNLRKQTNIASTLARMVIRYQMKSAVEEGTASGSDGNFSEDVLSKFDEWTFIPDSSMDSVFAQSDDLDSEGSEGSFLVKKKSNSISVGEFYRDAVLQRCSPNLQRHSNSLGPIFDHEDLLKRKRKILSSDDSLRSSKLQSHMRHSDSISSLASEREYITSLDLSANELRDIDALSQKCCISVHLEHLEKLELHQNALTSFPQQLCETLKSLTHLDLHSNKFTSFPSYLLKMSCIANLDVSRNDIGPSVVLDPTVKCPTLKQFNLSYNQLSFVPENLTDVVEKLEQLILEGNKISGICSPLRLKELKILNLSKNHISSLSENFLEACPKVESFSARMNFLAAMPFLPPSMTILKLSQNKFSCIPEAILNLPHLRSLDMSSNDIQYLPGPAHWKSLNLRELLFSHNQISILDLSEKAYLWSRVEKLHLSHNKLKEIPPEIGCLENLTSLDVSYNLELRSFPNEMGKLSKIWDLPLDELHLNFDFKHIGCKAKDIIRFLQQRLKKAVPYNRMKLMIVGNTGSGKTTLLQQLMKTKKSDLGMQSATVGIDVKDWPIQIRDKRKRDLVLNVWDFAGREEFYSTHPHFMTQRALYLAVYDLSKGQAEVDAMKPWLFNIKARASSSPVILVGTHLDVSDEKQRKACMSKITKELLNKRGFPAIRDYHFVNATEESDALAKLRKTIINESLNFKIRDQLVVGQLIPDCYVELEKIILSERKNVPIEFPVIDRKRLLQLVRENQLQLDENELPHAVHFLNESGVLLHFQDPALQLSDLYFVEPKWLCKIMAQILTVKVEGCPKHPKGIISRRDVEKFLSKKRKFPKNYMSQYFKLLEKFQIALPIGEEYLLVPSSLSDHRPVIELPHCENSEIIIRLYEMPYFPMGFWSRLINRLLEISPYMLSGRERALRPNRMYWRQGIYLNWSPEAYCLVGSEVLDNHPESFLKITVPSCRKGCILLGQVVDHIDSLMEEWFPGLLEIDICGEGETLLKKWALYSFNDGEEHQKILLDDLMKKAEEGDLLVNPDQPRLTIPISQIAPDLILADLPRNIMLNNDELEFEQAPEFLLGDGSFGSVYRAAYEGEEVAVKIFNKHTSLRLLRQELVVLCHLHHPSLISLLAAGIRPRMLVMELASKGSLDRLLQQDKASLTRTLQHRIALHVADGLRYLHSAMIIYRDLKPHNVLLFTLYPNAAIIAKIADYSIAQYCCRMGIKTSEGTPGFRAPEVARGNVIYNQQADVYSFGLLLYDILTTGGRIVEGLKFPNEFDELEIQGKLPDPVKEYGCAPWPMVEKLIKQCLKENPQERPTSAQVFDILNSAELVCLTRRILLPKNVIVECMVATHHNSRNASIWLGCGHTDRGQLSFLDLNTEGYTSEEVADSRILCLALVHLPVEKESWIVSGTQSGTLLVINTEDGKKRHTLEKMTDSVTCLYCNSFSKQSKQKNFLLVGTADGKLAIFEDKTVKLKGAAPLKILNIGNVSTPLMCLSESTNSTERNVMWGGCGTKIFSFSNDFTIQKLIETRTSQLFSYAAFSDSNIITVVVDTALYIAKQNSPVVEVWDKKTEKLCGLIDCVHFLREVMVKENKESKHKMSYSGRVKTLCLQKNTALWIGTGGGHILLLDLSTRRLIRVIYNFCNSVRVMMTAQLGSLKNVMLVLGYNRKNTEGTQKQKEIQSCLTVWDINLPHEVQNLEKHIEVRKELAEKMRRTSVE

[2] = Neurotoxicity in rat primary cortical neurons assessed as cell survival at 100 uM after 24 hrs by MTT assay; assay type: toxicity, cell-based; conditions: cerebral cortex neuron
[3] = system: Leucine-rich repeat serine/threonine-protein kinase 2 (Homo sapiens), Q5S007 [G2019S]; experiment: Inhibition of LRRK2 G2019S mutant expressed in mouse SN4741 cells assessed as reduction in hydrogen peroxide-induced neurotoxicity at 10 uM by measuring cell survival after 48 hrs by crystal violet assay relative to control; assay type: cell-based
[4] = target: Leucine-rich repeat serine/threonine-protein kinase 2 (Homo sapiens) (UniProt Q5S007); experiment: Inhibition of wild type LRRK2 expressed in mouse SN4741 cells assessed as reduction in hydrogen peroxide-induced neurotoxicity at 10 uM by measuring cell survival after 48 hrs by crystal violet assay relative to control; assay type: cell-based
Chain of Leucine-rich repeat serine/threonine-protein kinase 2 (Homo sapiens) (Q5S007 whole entry): as the sequence (Q5S007 whole entry G2019S) above, with S2019G counted along it

[5] = target: Dual specificity tyrosine-phosphorylation-regulated kinase 1A (Homo sapiens) (UniProt Q13627); experiment: Inhibition of DYRK1A expressed in bacteria using [gamma32-P]ATP at 25 uM
[6] = Neurotoxicity in rat primary cortical neurons assessed as cell survival at 10 uM after 24 hrs by MTT assay; assay type: toxicity, cell-based, Cerebral cortex neuron; conditions: read-out: Activity
[7] = target: Leucine-rich repeat serine/threonine-protein kinase 2 (Homo sapiens, UniProt Q5S007, G2019S); experiment: Inhibition of purified N-terminal GST-tagged LRRK2 G2019S mutant autophosphorylation activity using [gamma32-P]ATP
Chain of Leucine-rich repeat serine/threonine-protein kinase 2 (Q5S007 whole entry G2019S): as the sequence (Q5S007 whole entry G2019S) above

SMILES: Oc1ccc(/C=N/Nc2ccc3ccccc3n2)c(O)c1
- inhibition [1]: Active

SMILES: COc1ccc(/C=N/Nc2ccc3ccccc3n2)cc1
- inhibition [1]: Active

SMILES: Cc1ccc2cc(C)c(N/N=C/c3ccc(O)cc3)nc2c1
- inhibition [1]: Active

SMILES: COc1cc(/C=N/Nc2nc3cc(C)ccc3cc2C)ccc1O
- inhibition [1]: Active

SMILES: Cc1cc(N/N=C/c2ccc(O)c(O)c2)nc2ccccc12
- inhibition [1]: Active
- Activity [2]: Toxic
- Activity [3]: 50%
- Activity [4]: 50%
- inhibition [5]: inactive
- viability at 24 h, 10 µM [6]: 85%
- IC50 [7]: 13.2 µM
